The test system of test [1] is 5-hydroxy-tryptamine or histamine induced bronchoconstriction. The test can be described thus: Broncho-dilation activity: inhibition of induced bronchoconstriction (Konzett-Rossler preparation). The test is classed as in vivo. The following applies: Cavia porcellus, iv; anaesthetised artificially respired guinea-pig; read-out: ED 50 value for inhibition of bronchoconstriction. An excerpt: The compound of Example 4 was examined for its ability to inhibit 5-hydroxy-tryptamine or histamine induced bron- choconstrictioh in the anaesthetised artifically respired guinea-pig (Konzett-Rossler preparation).

Test [2] relates to indomethacin induced gastric damage. The test can be described thus: Anti-ulcer activity: inhibition of indomethacin induced gastric damage (method of Eleghe). The format is in vivo. The following applies: Rattus norvegicus, 30 minutes before 15mg/kg indomethacin s.c., rats sacrificed 4 hours later. How it is done: Anti-ulcer activity of the compound of Example 4 was assessed by the inhibition of indomethacin induced gastric damage in the rat according to the method of Eleghe (1974) Israeli J. Med. Sci. 10. 1451. Rats were starved overnight given 15mg/kg indomethacin subcutaneously and sacrificed 4 hours later. Stomachs were reflated with n. saline, cut along the greater curvature pinned out and scored for gastric damage.
Groups of 7 rats were used for each treatment and the test compound or vehicle was administered 30 minutes prior to giving the indomethacin. Varying doses of test compound were administered orally and control groups receiving vehicle only were set up simultaneously. Mean values for each treatment were obtained and the Mann Witney test applied for significance of difference between the values obtained with the treatments.

In patent publication EP0006718A1, “1.2.4-Triazolidine-3.5-dione derivatives, process for their preparation and pharmaceutical compositions containing them” (BEECHAM GROUP PLC, priority 1978, dated 1980) one finds ED50 and inhibition data, which are given here for one molecule.

As a reminder, the inhibition is the relative decrease from the control value, in per cent. A higher inhibition goes with a response far below the control.

Turning to `Cn1c(=O)n(CCCCCCC(=O)O)n(CCC(C)(O)COc2ccccc2)c1=O` (stereo not shown) [Example 4, 1-(6'-carboxyhexyl)-2-(3"-hydroxy-3"-methyl-4"-phenoxybutyl)-4-methyl'-1,2,4-triazolidine-3,5-dione], the ED50 in test [1] is 0.039 mg/kg. The molecule further came in with an inhibition at 25 mg/kg in test [2] (25 mg/kg p.o.) of 56%. In addition, the inhibition at 50 mg/kg in test [2] (50 mg/kg p.o.) was determined as 50%. Moreover, the inhibition at 100 mg/kg in test [2] (100 mg/kg p.o.) turned out to be 92%.
